According to patent US10881702B2, “Celastrol and derivatives thereof for the treatment of tumours and precancerous diseases of the skin” (PIERRE FABRE MEDICAMENT, priority 2016, dated 2021):

Tests used:
[1] = tested on: healthy skin (epidermal keratinocytes); format: in vivo, mice (SKH-1); details: occlusive patch 30 h
Description: Apoptosis is a fundamental event in cell development (proliferation). The visualisation of apoptosis and the subsequent healing phenomenon reflects the efficacy of medicaments in the treatment of precancerous and cancerous cells. Picato® (0.015% ingenol mebutate) is a product on the market which is indicated for the treatment of actinic keratosis. Picato® is known to induce cell death by a necrotic effect that rapidly eliminates dead cells, followed by a healing phase. To evaluate the “apoptotic” power of celastrol on skin cells (epidermal keratinocytes), we compared the apoptotic effect induced by the topical application of celastrol compared to that of a product already on the market.
(§1) Non-inbred hairless SKH-1 strain mice are most commonly used in preclinical dermatological research. These non-pigmented and immunocompetent mice allow easy manipulation of the skin, application of topical agents, exposure to UV radiation and easy visualisation of the cutaneous response. Wound healing, acute biological photo responses and skin carcinogenesis are well characterised in this mouse strain. In addition, the tumours induced in these mice resemble, at both the molecular and the morphological level, UV-induced malignant skin tumours in humans. In this study on healthy skin, 6- to 8-week-old SKH-1 females (18 to 20 grams; Charles River Laboratories) are treated topically with the various compounds.
(§2) Picato® (0.015% ingenol mebutate), used in humans to treat actinic keratosis lesions, was administered topically to the animals (2 to 3 animals per group) for 24 hours under a 19-mm-diameter, i.e., 2.83 cm^2, occlusive patch (Hill Top Research, USA). The patch is loaded with 200 μL of Picato® cream, i.e. 30 μg of active ingredient. The treated skin area is delimited by tattooing on each mouse and the patch is held on the mouse using Tegaderm™ film and Omnifix® and Elastoplast™ adhesive tape. The occlusive dressing is removed after 24 hours, and the animals are followed clinically for 3 to 4 weeks.
Celastrol (Euromedex) is formulated in a vehicle consisting of 5% DMSO-70% glycerol-25% water. The pH is adjusted by adding soda to around 8-8.5 in order to completely solubilise the powder. The initial concentration is 10 mg/mL then serial dilutions in the vehicle yield concentrations of 5 and 2.5 mg/mL. Celastrol is applied topically for 30 hours under a 19-mm-diameter occlusive patch. The patches are loaded with 200 μL of the various celastrol solutions, i.e. 2000 μg, 1000 μg or 500 μg of active ingredient.
The treated skin area is delimited by tattooing on each mouse and the patch is held on the mouse using Tegaderm™ film and Omnifix® and Elastoplast™ adhesive tape. The occlusive bandage is removed after 30 hours and the animals are followed clinically for 3 to 4 weeks.
The animals are weighed twice per week. The treated area of each animal is photographed two to three times per week in order to follow the progression of the cutaneous reaction and healing.

[2] = Clinical monitoring: body weight of topically treated SKH-1 mice; format: in vivo, mice (SKH-1)
Description: as §1
as §2, with “weeks. […]” for “weeks.”

CC1=C(O)C(=O)C=C2C1=CC=C1[C@@]2(C)CC[C@@]2(C)[C@@H]3C[C@](C)(C(=O)O)CC[C@]3(C)CC[C@]12C [celastrol]
scar area on day 28 ([1]; celastrol 1000 μg and 2000 μg doses): slight hypertrophy of the scar area
cutaneous reaction first visible ([1]; celastrol 500, 1000, 2000 μg, 24 hours after discontinuation): 3 days
healing process starts ([1]; celastrol 500-2000 μg, dose-dependent): 7 days
depth of the pro-apoptotic action ([1]; celastrol 500-2000 μg, localised in the epidermis): superficial
dose from which apoptosis of epidermal cells is induced in vivo ([1]; celastrol topical, dose-dependent): ≥ 500 μg/application
haemorrhagic zones ([1]; celastrol, even at the highest dose (2000 μg)): no haemorrhagic zones are observed
systemic toxicity / tolerance ([2]; topical route at the doses used, SKH-1 mice): no systemic toxicity
effect on the weight of SKH-1 mice ([2]; topical, occlusive patch, Picato 200 μL (30 μg) 24 h, celastrol 500-2000 μg 30 h, weighed twice per week): no effect on the weight
